For this assay, the target named is T1, Solute carrier organic anion transporter family member 1B1 (Homo sapiens, UniProt Q9Y6L6).
T1 sequence (Q9Y6L6 whole entry): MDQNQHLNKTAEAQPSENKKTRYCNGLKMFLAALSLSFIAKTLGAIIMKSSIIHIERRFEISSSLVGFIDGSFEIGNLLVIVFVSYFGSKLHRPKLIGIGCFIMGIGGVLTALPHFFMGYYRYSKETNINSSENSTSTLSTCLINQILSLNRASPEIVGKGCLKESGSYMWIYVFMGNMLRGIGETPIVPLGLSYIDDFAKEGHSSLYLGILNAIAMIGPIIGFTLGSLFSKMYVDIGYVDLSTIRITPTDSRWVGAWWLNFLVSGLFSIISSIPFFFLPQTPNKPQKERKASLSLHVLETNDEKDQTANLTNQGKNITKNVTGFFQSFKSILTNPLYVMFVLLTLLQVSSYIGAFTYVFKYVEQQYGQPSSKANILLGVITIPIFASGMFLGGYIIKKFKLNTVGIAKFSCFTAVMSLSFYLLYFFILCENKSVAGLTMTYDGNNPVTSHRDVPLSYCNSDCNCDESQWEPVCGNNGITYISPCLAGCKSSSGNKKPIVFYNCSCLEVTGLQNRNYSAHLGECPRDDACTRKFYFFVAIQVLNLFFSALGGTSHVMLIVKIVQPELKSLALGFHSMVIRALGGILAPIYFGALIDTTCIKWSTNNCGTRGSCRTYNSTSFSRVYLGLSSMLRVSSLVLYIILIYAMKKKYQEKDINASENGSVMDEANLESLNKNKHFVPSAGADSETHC

What is called Ki is the equilibrium dissociation constant of an inhibitor or competing ligand from its target. A higher Ki goes with lower affinity.

`COc1ccc2c(c1)c(CC(=O)O)c(C)n2C(=O)c1ccc(Cl)cc1` [indometacin]: the Ki was found to be 2 nM.
Next, `Cc1ccc(-c2ncc(Cl)cc2-c2ccc(S(C)(=O)=O)cc2)cn1`: greater than 10000 nM.

The values above are taken from BindingDB's records for PubMed 11160644 (Merck Frosst Centre For Therapeutic Research, 2001).
